Test results: ChEMBL document CHEMBL5620412, “Discovery of benzofuran-2-carboxylic acid derivatives as lymphoid tyrosine phosphatase (LYP) inhibitors for cancer immunotherapy” (Eur J Med Chem, 2023)
pIC50: −log10 of the molar value.

Target: T1, Tyrosine-protein phosphatase non-receptor type 22 (Homo sapiens, UniProt Q9Y2R2)
T1 sequence (Q9Y2R2 whole entry): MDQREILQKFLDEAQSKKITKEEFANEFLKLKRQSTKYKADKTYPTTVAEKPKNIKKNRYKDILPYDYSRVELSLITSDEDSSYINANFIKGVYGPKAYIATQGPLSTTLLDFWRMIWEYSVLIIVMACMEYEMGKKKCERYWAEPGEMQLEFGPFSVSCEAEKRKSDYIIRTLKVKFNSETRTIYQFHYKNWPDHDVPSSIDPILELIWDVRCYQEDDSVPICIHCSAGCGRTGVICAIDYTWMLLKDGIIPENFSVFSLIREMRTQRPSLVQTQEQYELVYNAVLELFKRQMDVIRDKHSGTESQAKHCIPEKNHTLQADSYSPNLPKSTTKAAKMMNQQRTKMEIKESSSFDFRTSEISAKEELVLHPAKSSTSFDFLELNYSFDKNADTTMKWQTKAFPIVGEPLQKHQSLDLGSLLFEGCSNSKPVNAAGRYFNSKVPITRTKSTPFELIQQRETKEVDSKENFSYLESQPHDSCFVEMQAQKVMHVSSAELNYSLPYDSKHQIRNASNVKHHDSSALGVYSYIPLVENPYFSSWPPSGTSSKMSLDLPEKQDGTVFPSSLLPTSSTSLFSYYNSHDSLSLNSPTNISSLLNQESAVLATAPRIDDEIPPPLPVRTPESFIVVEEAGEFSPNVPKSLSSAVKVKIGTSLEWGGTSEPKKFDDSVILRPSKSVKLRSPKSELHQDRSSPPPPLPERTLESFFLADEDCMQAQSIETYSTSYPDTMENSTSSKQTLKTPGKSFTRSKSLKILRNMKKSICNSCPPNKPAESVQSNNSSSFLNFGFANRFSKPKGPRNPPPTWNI
Assay: Inhibition of N-terminal His-tagged LYP catalytic domain (1 to 294 residues) (unknown origin) expressed in Escherichia coli BL21 (DE3) cells using pNPP as substrate by absorbance based plate reader analysis

| pIC50 | SMILES |
| --- | --- |
| 4.97 | O=C(O)c1cc2cc(N(Cc3ccc(Oc4ccccc4)cc3)S(=O)(=O)c3ccc(-c4ccccc4)cc3)ccc2o1 |
| 5.03 | O=C(O)c1cc2cc(N(Cc3ccc(-c4ccccc4)cc3)S(=O)(=O)c3ccc(Cl)c([N+](=O)[O-])c3)ccc2o1 |
| 5.14 | O=C(O)c1cc2cc(N(Cc3ccc(-c4ccco4)cc3)S(=O)(=O)c3ccc(-c4ccccc4)cc3)ccc2o1 |
| 5.26 | COc1ccc(-c2ccc(CN(c3ccc4oc(C(=O)O)cc4c3)S(=O)(=O)c3ccc(-c4ccccc4)cc3)cc2)cc1 |
| < 4.70 | O=C(O)c1cc2cc(N(Cc3ccccc3)S(=O)(=O)c3ccc(Cl)c([N+](=O)[O-])c3)ccc2o1 |
| < 4.70 | O=C(O)c1cc2cc(N(Cc3ccccc3)S(=O)(=O)c3ccc(Cl)cc3)ccc2o1 |
| < 4.70 | O=C(O)c1cc2cc(NS(=O)(=O)c3ccc(Cl)c([N+](=O)[O-])c3)ccc2o1 |
| < 4.70 | O=C(O)c1cc2cc(NS(=O)(=O)c3ccc(Cl)cc3)ccc2o1 |
| 5.23 | O=C(O)c1cc2cc(N(Cc3ccc(-c4cccc(Cl)c4Cl)cc3)S(=O)(=O)c3ccc(Cl)c([N+](=O)[O-])c3)ccc2o1 |
| < 4.70 | O=C(O)c1cc2cc(N(Cc3ccc(-c4ccccc4)cc3)S(=O)(=O)c3cccc(Cl)c3)ccc2o1 |
| 5.17 | O=C(O)c1cc2cc(N(Cc3cccc(Br)c3)S(=O)(=O)c3ccc(NCCOc4ccccc4)c([N+](=O)[O-])c3)ccc2o1 |
| < 4.70 | CN(c1ccc2oc(C(=O)O)cc2c1)S(=O)(=O)c1ccc(-c2ccccc2)cc1 |
| < 4.70 | CN(c1ccc2oc(C(=O)O)cc2c1)S(=O)(=O)c1ccc(Cl)cc1 |
| < 4.70 | CC(C)CN(c1ccc2oc(C(=O)O)cc2c1)S(=O)(=O)c1ccc(Cl)cc1 |
| < 4.70 | CC(C)CN(c1ccc2oc(C(=O)O)cc2c1)S(=O)(=O)c1ccc(Cl)c([N+](=O)[O-])c1 |
| 5.17 | O=C(O)c1cc2cc(N(Cc3ccc(-c4ccc(Cl)cc4)cc3)S(=O)(=O)c3ccc(Cl)c([N+](=O)[O-])c3)ccc2o1 |
| < 4.70 | O=C(O)c1cc2cc(NS(=O)(=O)c3ccc(-c4ccccc4)cc3)ccc2o1 |

| pIC50 | SMILES |
| --- | --- |
| 4.99 | O=C(O)c1cc2cc(N(Cc3ccccc3)S(=O)(=O)c3ccc(NCCOc4ccccc4)c([N+](=O)[O-])c3)ccc2o1 |
| 5.36 | O=C(O)c1cc2cc(N(Cc3ccc(-c4ccc(Cl)cc4)cc3)S(=O)(=O)c3ccc(-c4ccccc4)cc3)ccc2o1 |
| 4.73 | O=C(O)c1cc2cc(N(Cc3ccc(-c4ccccc4)cc3)S(=O)(=O)c3cc(Cl)c(F)cc3F)ccc2o1 |
| 5.25 | CCCCCCNc1ccc(S(=O)(=O)N(Cc2ccc(-c3ccccc3)cc2)c2ccc3oc(C(=O)O)cc3c2)cc1[N+](=O)[O-] |
| 5.30 | CCCCCCNc1ccc(S(=O)(=O)N(Cc2ccccc2)c2ccc3oc(C(=O)O)cc3c2)cc1[N+](=O)[O-] |
| 5.05 | O=C(O)c1cc2cc(N(Cc3ccc(-c4ccccc4)cc3)S(=O)(=O)c3ccc(-c4cccs4)cc3)ccc2o1 |
| 5.29 | O=C(O)c1cc2cc(N(Cc3ccc(-c4ccccc4)cc3)S(=O)(=O)c3ccc(-c4ccccc4)cc3)ccc2o1 |
| < 4.70 | O=C(O)c1cc2cc(N(Cc3ccccc3)S(=O)(=O)c3ccc(-c4ccccc4)cc3)ccc2o1 |
| 5.10 | O=C(O)c1cc2cc(N(Cc3ccc(-c4ccccc4)cc3)S(=O)(=O)c3ccc(Br)cc3)ccc2o1 |
| < 4.70 | CN(c1ccc2oc(C(=O)O)cc2c1)S(=O)(=O)c1ccc(NCCN2CCOCC2)c([N+](=O)[O-])c1 |
| 4.82 | O=C(O)c1cc2cc(N(Cc3ccc(-c4ccccc4)cc3)S(=O)(=O)c3ccccc3Cl)ccc2o1 |
| 5.25 | O=C(O)c1cc2cc(N(Cc3ccc(Oc4ccccc4)cc3)S(=O)(=O)c3ccc(Cl)c([N+](=O)[O-])c3)ccc2o1 |
| 4.73 | O=C(O)c1cc2cc(N(Cc3ccc(-c4ccccc4)cc3)S(=O)(=O)c3ccc(O)c([N+](=O)[O-])c3)ccc2o1 |
| 5.04 | O=C(O)c1cc2cc(N(Cc3ccc(-c4ccccc4)cc3)S(=O)(=O)c3ccc(Cl)cc3)ccc2o1 |
| 5.11 | O=C(O)c1cc2cc(N(Cc3ccc(-c4ccccc4)cc3)S(=O)(=O)c3ccc(Cl)nc3)ccc2o1 |
| < 4.70 | CN(c1ccc2oc(C(=O)O)cc2c1)S(=O)(=O)c1ccc(Cl)c([N+](=O)[O-])c1 |
| < 4.70 | CC(C)CN(c1ccc2oc(C(=O)O)cc2c1)S(=O)(=O)c1ccc(-c2ccccc2)cc1 |
